Reference: patent publication US4929542A, “In vitro screening test for mutagenicity and genotoxicity during spermatogenesis” (Cornell Research Foundation, Inc., priority 1987, dated 1990)
Like-named read-outs stand apart in the source and are kept apart here.

Experiments:
[1] = test system: Xenopus laevis testis explants (round spermatids); assay: In vitro spermatid micronucleus assay (percent round spermatids with micronuclei in cultured testis explants); conditions: for relative in vitro clastogenic potency: day 30 micronucleus counts vs product of mutagen dose and exposure time (FIG. 7)
[2] = test system: chromosome aberrations, meiotic prophase; conditions: male mouse; cited from earlier work

COc1cccc2c1C(=O)c1c(O)c3c(c(O)c1C2=O)C[C@@](O)(C(=O)CO)C[C@@H]3O[C@H]1C[C@H](N)[C@H](O)[C@H](C)O1 [AD, adriamycin]
concentration at which assay was sensitive to clastogenesis ([1]; AD, 4 hr exposure, day 22, = 0.58 mg/L): 10^-6 M | concentration at which assay was sensitive to clastogenesis ([1]; AD, 4 hr exposure, day 30, = 58 μg/L): 10^-7 M | increase in spermatid micronuclei ([1]; AD, 4 hr exposure, days 22 and 30, unmodified XSCM (Table 6)): dose-dependent increase in spermatid micronuclei on both days 22 and 30 | spermatocyte stages most sensitive to clastogenesis ([1]; AD, 4 hrs exposure (Table 5)): leptotene (day 23) and premeiotic S or type B spermatogonia (day 30) | increase in spermatid micronuclei ([1]; AD, 4 hrs exposure, each time point (Table 5)): dose-dependent increases in spermatid micronuclei at each time point examined | increase in assay sensitivity on increasing exposure ([1]; AD, exposure increased from 4 hrs. to 12 hrs.): 1.7 fold

O=P1(N(CCCl)CCCl)NCCCO1 (stereo not shown) [CP, cyclophosphamide]
induction of chromosome aberrations [2]: induction of chromosome aberrations throughout meiotic prophase | Micronucleus % [1]: .15 +/- .06% | induction of spermatid micronuclei relative to concurrent controls [1]: did not result in a significant induction of spermatid micronuclei | Percent Round Spermatids With Micronuclei ([1]; CP 10^-4 moles/L, 24 hr incubation, post-CP culture Day 2): .30 +/- .14% | Percent Round Spermatids With Micronuclei ([1]; CP 10^-4 moles/L, 24 hr incubation, post-CP culture Day 5): .29 +/- .14% | Percent Round Spermatids With Micronuclei ([1]; CP 10^-4 moles/L, 24 hr incubation, post-CP culture Day 8): .29 +/- .13% | Percent Round Spermatids With Micronuclei ([1]; CP 10^-4 moles/L, 24 hr incubation, post-CP culture Day 21): .25 +/- .07% | Percent Round Spermatids With Micronuclei ([1]; CP 10^-4 moles/L, 24 hr incubation, post-CP culture Day 29, p < .001): 2.70 +/- .13% | Micronucleus % ([1]; CP 10^-4 moles/L, 72 hr incubation, cultured 6 days after): .27 +/- .11% | Percent Round Spermatids With Micronuclei ([1]; CP 10^-5 moles/L, 24 hr incubation, post-CP culture Day 2): .20 +/- .01% | Percent Round Spermatids With Micronuclei ([1]; CP 10^-5 moles/L, 24 hr incubation, post-CP culture Day 5): .19 +/- .01% | Percent Round Spermatids With Micronuclei ([1]; CP 10^-5 moles/L, 24 hr incubation, post-CP culture Day 8): .29 +/- .14% | Percent Round Spermatids With Micronuclei ([1]; CP 10^-5 moles/L, 24 hr incubation, post-CP culture Day 15): .38 +/- .26% | Percent Round Spermatids With Micronuclei ([1]; CP 10^-5 moles/L, 24 hr incubation, post-CP culture Day 21): .41 +/- .16% | Percent Round Spermatids With Micronuclei ([1]; CP 10^-5 moles/L, 24 hr incubation, post-CP culture Day 29, P < .01): 1.90 +/- .43% | Micronucleus % ([1]; CP 10^-5 moles/L, 72 hr incubation, cultured 6 days after): .19 +/- .01% | Percent Round Spermatids With Micronuclei ([1]; CP 10^-6 moles/L, 24 hr incubation, post-CP culture Day 2): .37 +/- .28% | Percent Round Spermatids With Micronuclei ([1]; CP 10^-6 moles/L, 24 hr incubation, post-CP culture Day 5): .37 +/- .29% | Percent Round Spermatids With Micronuclei ([1]; CP 10^-6 moles/L, 24 hr incubation, post-CP culture Day 8): .15 +/- .06% | Percent Round Spermatids With Micronuclei ([1]; CP 10^-6 moles/L, 24 hr incubation, post-CP culture Day 15): .49 +/- .13% | Percent Round Spermatids With Micronuclei ([1]; CP 10^-6 moles/L, 24 hr incubation, post-CP culture Day 21): .35 +/- .07% | Percent Round Spermatids With Micronuclei ([1]; CP 10^-6 moles/L, 24 hr incubation, post-CP culture Day 29, p < .05): .99 +/- .01% | Micronucleus % ([1]; CP 10^-6 moles/L, 72 hr incubation, cultured 6 days after): .14 +/- .06% | induction of spermatid micronuclei ([1]; CP, 24 hr incubation, 29 days after exposure): dose-dependent increase in spermatid micronuclei | lowest effective dose (spermatid micronuclei) ([1]; CP, 24 hr incubation, 29 days after exposure, = […]): 10^-6 M | increase in micronuclei in spermatids from pachytene through diplotene stages ([1]; CP, 72 hr incubation, 6 days culture): did not result in significant increases in micronuclei | stage restriction of clastogenesis ([1]; CP, cultured testes): restriction of CP clastogenesis to premeiotic stages | stage of cells affected (aberrations) ([1]; CP, in vitro exposure of testis explants): induces aberrations in cells that require 24 to 30 days to develop into round spermatids | relative in vitro clastogenic potency [1]: AD>CP>DMBA

Cc1c2ccccc2c(C)c2c1ccc1ccccc12 [DMBA, 9,10-dimethyl-1,2-benzanthracene]
Percent Round Spermatids With Micronuclei ([1]; DMBA 10^-4 moles/L, 24 hr incubation, post-DMBA culture Day 2): .16 +/- .04% | Percent Round Spermatids With Micronuclei ([1]; DMBA 10^-4 moles/L, 24 hr incubation, post-DMBA culture Day 5): .15 +/- .06% | Percent Round Spermatids With Micronuclei ([1]; DMBA 10^-4 moles/L, 24 hr incubation, post-DMBA culture Day 8): .17 +/- .05% | Percent Round Spermatids With Micronuclei ([1]; DMBA 10^-4 moles/L, 24 hr incubation, post-DMBA culture Day 15): .48 +/- .12% | Percent Round Spermatids With Micronuclei ([1]; DMBA 10^-4 moles/L, 24 hr incubation, post-DMBA culture Day 22): .28 +/- .12% | Percent Round Spermatids With Micronuclei ([1]; DMBA 10^-4 moles/L, 24 hr incubation, post-DMBA culture Day 29, p < .001): 1.07 +/- .14% | fold increase in spermatid micronucleus frequency, 72 hr relative to 24 hr incubation ([1]; DMBA 10^-5 M (2.6 mg/L), culture day 30): 3 fold | Percent Round Spermatids With Micronuclei ([1]; DMBA 10^-5 moles/L, 24 hr incubation, post-DMBA culture Day 2): .19 +/- .01% | Percent Round Spermatids With Micronuclei ([1]; DMBA 10^-5 moles/L, 24 hr incubation, post-DMBA culture Day 5): .16 +/- .06% | Percent Round Spermatids With Micronuclei ([1]; DMBA 10^-5 moles/L, 24 hr incubation, post-DMBA culture Day 8): .39 +/- .28% | Percent Round Spermatids With Micronuclei ([1]; DMBA 10^-5 moles/L, 24 hr incubation, post-DMBA culture Day 15): .20 +/- .001% | Percent Round Spermatids With Micronuclei ([1]; DMBA 10^-5 moles/L, 24 hr incubation, post-DMBA culture Day 22): .48 +/- .13% | Percent Round Spermatids With Micronuclei ([1]; DMBA 10^-5 moles/L, 24 hr incubation, post-DMBA culture Day 29, p < .01): .83 +/- .06% | Percent Round Spermatids With Micronuclei ([1]; DMBA 10^-6 moles/L, 24 hr incubation, post-DMBA culture Day 2): .28 +/- .13% | Percent Round Spermatids With Micronuclei ([1]; DMBA 10^-6 moles/L, 24 hr incubation, post-DMBA culture Day 5): .15 +/- .06% | Percent Round Spermatids With Micronuclei ([1]; DMBA 10^-6 moles/L, 24 hr incubation, post-DMBA culture Day 8): .16 +/- .06% | Percent Round Spermatids With Micronuclei ([1]; DMBA 10^-6 moles/L, 24 hr incubation, post-DMBA culture Day 15): .39 +/- .01% | Percent Round Spermatids With Micronuclei ([1]; DMBA 10^-6 moles/L, 24 hr incubation, post-DMBA culture Day 22): .30 +/- .14% | Percent Round Spermatids With Micronuclei ([1]; DMBA 10^-6 moles/L, 24 hr incubation, post-DMBA culture Day 29, p < .05): .68 +/- .01% | Percent Round Spermatids With Micronuclei ([1]; DMBA 10^-7 moles/L, 24 hr incubation, 0.1% DMSO, post-DMBA culture Day 2, mean +/- s.d., n=2): .29 +/- .14% | Percent Round Spermatids With Micronuclei ([1]; DMBA 10^-7 moles/L, 24 hr incubation, post-DMBA culture Day 5): .16 +/- .06% | Percent Round Spermatids With Micronuclei ([1]; DMBA 10^-7 moles/L, 24 hr incubation, post-DMBA culture Day 8): .21 +/- .02% | Percent Round Spermatids With Micronuclei ([1]; DMBA 10^-7 moles/L, 24 hr incubation, post-DMBA culture Day 15): .28 +/- .13% | Percent Round Spermatids With Micronuclei ([1]; DMBA 10^-7 moles/L, 24 hr incubation, post-DMBA culture Day 22): .19 +/- .02% | Percent Round Spermatids With Micronuclei ([1]; DMBA 10^-7 moles/L, 24 hr incubation, post-DMBA culture Day 29): .36 +/- .05% | increase in spermatid micronucleus frequency ([1]; DMBA, 24 hr exposure): dose-dependent increase in the spermatid micronucleus frequency only after 29 additional days of culture | Percent Round Spermatids With Micronuclei ([1]; Table 4: DMBA 10^-5 moles/L, 24 hr incubation, subsequent culture 29 days, P < .05): .86 +/- .10% | Percent Round Spermatids With Micronuclei ([1]; Table 4: DMBA 10^-5 moles/L, 72 hr incubation, subsequent culture 27 days, P < .001): 2.52 +/- .44% | relative in vitro clastogenic potency [1]: AD>CP>DMBA
